From patent US20180009859A1, “PHARMACOLOGICAL MODULATORS OF GABAA RECEPTORS AND THEIR USE” (priority 2015, published 2018)
Values joined by “and” are separate entries in the source; they are usually repeats but may differ in a detail not shown here. Equal entries are not always repeated. “Also recorded” adds a separate entry of the source. Where two headings read alike, the source gives them in different places. Bridge positions count the residues as written; N and C are the ends.

Columns and labels:
[1] = target: T1, α1β2γ2 GABAA receptor (Rattus norvegicus, UniProt P62813+P63138); type: cell-based; details: 5 μM muscimol + 100 nM sMmTX1, n=3; control 48±5s
T1 sequence (P63138 25-474): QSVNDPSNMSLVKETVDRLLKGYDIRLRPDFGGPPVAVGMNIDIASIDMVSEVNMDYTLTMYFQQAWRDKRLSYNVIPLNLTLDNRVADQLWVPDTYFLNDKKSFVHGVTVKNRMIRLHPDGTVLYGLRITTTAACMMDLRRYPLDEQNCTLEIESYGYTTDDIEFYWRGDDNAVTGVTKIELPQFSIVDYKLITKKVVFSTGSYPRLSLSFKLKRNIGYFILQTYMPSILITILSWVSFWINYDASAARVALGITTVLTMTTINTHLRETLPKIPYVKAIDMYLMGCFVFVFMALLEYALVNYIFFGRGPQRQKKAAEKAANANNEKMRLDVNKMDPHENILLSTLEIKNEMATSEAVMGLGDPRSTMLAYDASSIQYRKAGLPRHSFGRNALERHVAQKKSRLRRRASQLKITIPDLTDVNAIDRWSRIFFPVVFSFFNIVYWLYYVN
T1 sequence (P62813 28-455): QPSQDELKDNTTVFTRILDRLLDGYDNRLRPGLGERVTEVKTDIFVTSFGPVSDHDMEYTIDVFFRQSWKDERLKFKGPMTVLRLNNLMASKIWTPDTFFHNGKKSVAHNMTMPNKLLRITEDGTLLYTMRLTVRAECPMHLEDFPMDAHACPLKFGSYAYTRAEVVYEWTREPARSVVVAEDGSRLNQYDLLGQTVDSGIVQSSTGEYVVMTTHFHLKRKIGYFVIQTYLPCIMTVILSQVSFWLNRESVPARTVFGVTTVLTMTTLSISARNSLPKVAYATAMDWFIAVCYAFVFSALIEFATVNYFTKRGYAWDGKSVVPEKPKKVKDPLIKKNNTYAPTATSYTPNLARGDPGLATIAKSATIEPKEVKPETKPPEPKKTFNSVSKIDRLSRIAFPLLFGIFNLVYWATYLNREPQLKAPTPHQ
T1 sequence (P18508 39-466, further chain): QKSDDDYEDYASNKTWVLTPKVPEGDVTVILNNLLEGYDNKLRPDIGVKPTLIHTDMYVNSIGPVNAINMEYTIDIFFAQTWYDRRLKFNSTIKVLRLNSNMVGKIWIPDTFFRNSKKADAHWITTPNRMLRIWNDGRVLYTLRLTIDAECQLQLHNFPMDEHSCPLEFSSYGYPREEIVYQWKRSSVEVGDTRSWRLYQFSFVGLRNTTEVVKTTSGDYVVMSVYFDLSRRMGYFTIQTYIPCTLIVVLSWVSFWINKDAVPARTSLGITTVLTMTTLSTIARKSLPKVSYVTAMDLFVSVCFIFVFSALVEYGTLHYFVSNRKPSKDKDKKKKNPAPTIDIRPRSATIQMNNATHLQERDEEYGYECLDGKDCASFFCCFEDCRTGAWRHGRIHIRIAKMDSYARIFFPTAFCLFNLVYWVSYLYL

[2] = tested on: α1EKβ2γ2 receptor mutant; type: cell-based, rat
[3] = target: α1β2-containing receptor (Rattus norvegicus, UniProt P62813+P63138); type: cell-based; details: 100 nM sMmTX1, −70 mV
Chain of α1β2-containing receptor (P63138 25-474): as the sequence (P63138 25-474) above
Chain of α1β2-containing receptor (P62813 28-455): as the sequence (P62813 28-455) above

[4] = tested on: hippocampal neurons; experiment: Calcium imaging of hippocampal neurons (Ca^2+ oscillations); type: cell-based, rat
[5] = target: T1, α1β2γ2 GABAA receptor; type: cell-based
[6] = tested on: hippocampal neurons; type: cell-based, mouse
[7] = tested on: mice; details: injection into mouse brain

LTCKTCPFTTCPNSESCPGGQSICYQRKWEEHRGERIERRCVANCPAFGSHDTSLLCCTRDNCN (disulfide 3-24, 6-11, 17-41, 45-57, 58-63) [sMmTX1]
time constant of receptor desensitization [1]: 25 ± 3 s and 25 ± 2 s
effect on macroscopic conductance ([2]; 300 nM muscimol): still reduces the macroscopic conductance
effect on mutant receptor desensitization ([2]; 5 μM muscimol + 100 nM sMmTX1, n=4): does not increase mutant receptor desensitization
sensitivity of the receptor to toxin [3]: sensitive
initial effect on Ca^2+ oscillations [4]: short but substantial inhibition
frequency of Ca^2+ spikes compared to cells perfused with extracellular saline solution ([4]; 100 nM sMmTX1 alone, n=9): 105.8±4.0%
alteration of current elicited by 50 μM muscimol [5]: not significantly altered
factor of current increase ([5]; 0.3 μM muscimol + 100 nM sMmTX1, n=5): 2.7±0.18
factor of current increase ([5]; 3 μM muscimol + 10 nM toxin): 1.28±0.12
factor of current increase ([5]; 3 μM muscimol + 100 nM toxin): 1.33±0.13
effect on currents and desensitization ([5]; 3 μM muscimol + 300 nM sMmTX1, −70 mV): currents are potentiated and receptor desensitization tends to accelerate
factor of current increase ([5]; 3 μM muscimol + 300 nM toxin): 1.60±0.11
frequency of action potentials ([6]; 100 nM sMmTX1, current clamp, n=5): substantial increase; also recorded: significantly increased
action potential amplitude and time-to-peak ([6]; 100 nM sMmTX1, n=5): do not reveal a significant change
amplitude of mini inhibitory postsynaptic currents (mIPSCs) ([6]; 300 nM muscimol and 100 nM sMmTX1, with TTX, DNQX, APV, n=3): reduces the amplitude
currents elicited by 30 ms puffs of 300 nM muscimol ([6]; continuous application of 100 nM sMmTX1): induces a decrease
duration of burst-like postsynaptic currents ([6]; sMmTX1, voltage clamp, n=5): considerable increase
LD50 [7]: 0.013 mg/kg
behavioral signs [7]: identical mouse behavioral phenotype
